Assay results published in ChEMBL document CHEMBL1201862, “PubChem BioAssay data set” (2004).
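Cells were grown in 96-well plates and exposed to each compound for 48 hours at five concentrations; endpoints were interpolated linearly between bracketing concentrations, or set to the highest concentration if not reached. GI50: concentration for 50% inhibition of growth.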 Activity calls are given as the source filed them. Cut-off read from the data, not from the text of the source: active = GI50 up to about 1.1 µM and inactive = higher.

Experiments:
Experiment in all cases: NCI-60 cell line screen, 48 h
NCI-H460 = tested on: NCI-H460
Malme-3M = tested on: Malme-3M
SF-539 = tested on: SF-539
SW-620 = tested on: SW-620
M14 = tested on: M14
NCI-H522 = tested on: NCI-H522
COLO 205 = tested on: COLO 205
A549 = tested on: A549
TK-10 = tested on: TK-10
SK-OV-3 = tested on: SK-OV-3
IGROV-1 = tested on: IGROV-1
HL-60 = tested on: HL-60
EKVX = tested on: EKVX
RPMI-8226 = tested on: RPMI-8226
NCI-H23 = tested on: NCI-H23
NCI/ADR-RES = tested on: NCI/ADR-RES
SN12C = tested on: SN12C
SK-MEL-5 = tested on: SK-MEL-5
OVCAR-4 = tested on: OVCAR-4
SR = tested on: SR

Measured: GI50

O=C1OCC=C1COC1OC(CO)C(O)C(O)C1O (stereo not given)
inactive: NCI-H460 > 100 µM | Malme-3M > 100 µM | SF-539 > 100 µM | SW-620 > 100 µM | M14 > 100 µM | NCI-H522 17.2 µM | COLO 205 > 100 µM | A549 > 100 µM | TK-10 > 100 µM | SK-OV-3 > 100 µM | IGROV-1 > 100 µM | HL-60 73.6 µM | EKVX > 100 µM | RPMI-8226 > 100 µM | NCI-H23 > 100 µM | NCI/ADR-RES > 100 µM | SN12C > 100 µM | SK-MEL-5 > 100 µM | OVCAR-4 > 100 µM | SR 36.2 µM

Cc1cc(S(=O)(=O)NC2=NCc3nc4ccccc4n32)c(S)cc1Cl
inactive: NCI-H460 27.7 µM | Malme-3M 22.5 µM | SF-539 20.7 µM | SW-620 47.6 µM | M14 23.7 µM | NCI-H522 34.9 µM | COLO 205 19.4 µM | A549 25.8 µM | TK-10 38.8 µM | IGROV-1 24.8 µM | HL-60 24.2 µM | EKVX 29.3 µM | RPMI-8226 20.3 µM | NCI/ADR-RES 19.6 µM | SN12C 23.5 µM | SK-MEL-5 16.9 µM | OVCAR-4 29.4 µM | SR 20.9 µM

CC(C)N(C)C(=O)C12C3C4C1C1C2C3C41C#N (stereo not given)
inactive: NCI-H460 > 100 µM | SF-539 > 100 µM | SW-620 > 100 µM | M14 > 100 µM | NCI-H522 > 100 µM | COLO 205 > 100 µM | A549 > 100 µM | TK-10 > 100 µM | IGROV-1 > 100 µM | HL-60 > 100 µM | EKVX > 100 µM | NCI-H23 > 100 µM | NCI/ADR-RES > 100 µM | SN12C > 100 µM | SK-MEL-5 > 100 µM | OVCAR-4 > 100 µM | SR > 100 µM

COCCN(C(=O)c1ccccc1)C1CCC(=O)c2[nH]c3ccccc3c21 (stereo not given)
inactive: NCI-H460 12.8 µM | Malme-3M 7.21 µM | SF-539 7.1 µM | SW-620 8.28 µM | M14 7.11 µM | NCI-H522 2.59 µM | COLO 205 15.5 µM | A549 15.6 µM | TK-10 20.3 µM | SK-OV-3 15.5 µM | IGROV-1 3.65 µM | HL-60 8.87 µM | EKVX 10.7 µM | RPMI-8226 17.7 µM | NCI-H23 17.7 µM | NCI/ADR-RES 19.3 µM | SN12C 7.85 µM | SK-MEL-5 7.14 µM | OVCAR-4 6.81 µM | SR 3.2 µM

N#C[C@H](c1ccccn1)c1nc2ccccc2nc1Cl
inactive: NCI-H460 > 100 µM | Malme-3M > 100 µM | SF-539 > 100 µM | SW-620 > 100 µM | M14 > 100 µM | NCI-H522 > 100 µM | COLO 205 > 100 µM | A549 > 100 µM | SK-OV-3 > 100 µM | IGROV-1 > 100 µM | HL-60 74.6 µM | EKVX > 100 µM | RPMI-8226 > 100 µM | NCI-H23 > 100 µM | NCI/ADR-RES > 100 µM | SN12C > 100 µM | SK-MEL-5 > 100 µM | OVCAR-4 > 100 µM | SR > 100 µM

COC(=O)c1ccc(NCc2cc(OC)ccc2OC)cc1
inactive: Malme-3M 36.1 µM | SF-539 68.5 µM | SW-620 58.2 µM | M14 40.6 µM | NCI-H522 38.4 µM | COLO 205 35.6 µM | A549 38.7 µM | TK-10 24 µM | SK-OV-3 57 µM | IGROV-1 > 100 µM | HL-60 26.3 µM | EKVX 80 µM | RPMI-8226 65.8 µM | NCI-H23 65 µM | NCI/ADR-RES 30.3 µM | SK-MEL-5 31.2 µM | OVCAR-4 > 100 µM | SR 38 µM

COC12OC3(C4OC41)C(C(=O)O[C@H]3CO[Si](C)(C)C(C)(C)C)C2C(=O)Oc1ccccc1 (stereo not given in full)
inactive: NCI-H460 > 100 µM | Malme-3M 92 µM | SW-620 > 100 µM | M14 > 100 µM | NCI-H522 > 100 µM | COLO 205 > 100 µM | A549 > 100 µM | TK-10 > 100 µM | SK-OV-3 > 100 µM | IGROV-1 > 100 µM | EKVX > 100 µM | RPMI-8226 91 µM | NCI-H23 > 100 µM | NCI/ADR-RES > 100 µM | SN12C > 100 µM | SK-MEL-5 > 100 µM | OVCAR-4 > 100 µM | SR > 100 µM
